Results from US10174024B2, “5H-pyrido[3,2-B]indole compounds as anticancer agents” (BRISTOL-MYERS SQUIBB COMPANY, priority 2015, dated 2019).

These molecules were tested against BRD4 (Homo sapiens, UniProt O60885) (assay: Time Resolved Fluorescence Resonance Energy Transfer (TR-FRET) binding assay, FRET BRD4). Conditions: one of the FRET assays described (BRD4 bromodomain construct not specified); read-out: FRET BRD4 IC50.

| SMILES | IC50 [nM] |
| --- | --- |
| Cc1nnn(C)c1-c1cnc2c3c(N4CCN(C(=O)OC(C)(C)C)CC4)ccc(S(C)(=O)=O)c3n([C@H](c3ccccc3)C3CCOCC3)c2c1 [Example 25, tert-Butyl 4-[3-(dimethyl-1H-1,2,3-triazol-5-yl)-6-methanesulfonyl-5-[(S)-oxan-4-yl(phenyl)methyl]-5H-pyrido[3,2-b]indol-9-yl]piperazine-1-carboxylate] | < 5 |
| Cc1nnn(C)c1-c1cnc2c3cc(N4C[C@@H](C)O[C@@H](C)C4)ccc3n(C(c3ccccc3)C3CCOCC3)c2c1 (stereo in doubt) [Example 3, (2R,6S)-4-[3-(Dimethyl-1H-1,2,3-triazol-5-yl)-5-[(R)-oxan-4-yl(phenyl)methyl]-5H-pyrido[3,2-b]indol-8-yl]-2,6-dimethylmorpholine] | < 5 |
| Cc1nnn(C)c1-c1cnc2c3c(N4CCCS4(=O)=O)ccc(S(C)(=O)=O)c3n([C@H](c3ccccc3)C3CCOCC3)c2c1 [Example 19, 2-[3-(Dimethyl-1H-1,2,3-triazol-5-yl)-6-methanesulfonyl-5-[(S)-oxan-4-yl(phenyl)methyl]-5H-pyrido[3,2-b]indol-9-yl]-1λ^6,2-thiazolidine-1,1-dione] | < 1 |
| [2H]C([2H])([2H])c1nnn(C)c1-c1cnc2c3c(N4CCC(F)(F)CC4)ccc(S(C)(=O)=O)c3n(C(c3ccccc3)C3CCC(F)(F)CC3)c2c1 (centres unmarked) [Example 74, 1-{5-[(4,4-Difluorocyclohexyl)(phenyl)methyl]-6-methanesulfonyl-3-[4-(^2H3)methyl-1-methyl-1H-1,2,3-triazol-5-yl]-5H-pyrido[3,2-b]indol-9-yl}-4,4-difluoropiperidine] | < 1500 |
| [2H]C([2H])([2H])c1nnn(C)c1-c1cnc2c3ccc(C4(O)CCOC4)c(F)c3n([C@H](c3ccccc3)C3CCOCC3)c2c1 (stereo partly drawn) [Example 64, 3-{6-Fluoro-3-[4-(^2H3)methyl-1-methyl-1H-1,2,3-triazol-5-yl]-5-[(S)-oxan-4-yl(phenyl)methyl]-5H-pyrido[3,2-b]indol-7-yl}oxolan-3-ol] | < 1 |
| Cc1nnn(C)c1-c1cnc2c3ccc(N4CCC(F)(F)CC4)cc3n(C(c3ccccc3)C3CCC(F)(F)CC3)c2c1 (single isomer, unassigned) [Example 75, 1-{5-[(4,4-Difluorocyclohexyl)(phenyl)methyl]-3-(dimethyl-1H-1,2,3-triazol-5-yl)-5H-pyrido[3,2-b]indol-7-yl}-4,4-difluoropiperidine] | < 5 |
| Cc1nnn(C)c1-c1cnc2c3ccc(N4CCN(C5CCN(C)CC5)CC4)cc3n([C@H](c3ccccc3)C3CCOCC3)c2c1 [Example 48, 1-[3-(Dimethyl-1H-1,2,3-triazol-5-yl)-5-[(S)-oxan-4-yl(phenyl)methyl]-5H-pyrido[3,2-b]indol-7-yl]-4-(1-methylpiperidin-4-yl)piperazine] | < 1 |
| [2H]C([2H])([2H])c1nnn(C)c1-c1cnc2c3cc(N4CCS(=O)(=O)CC4)ccc3n([C@H](c3ccccc3F)C3CCOCC3)c2c1 [Example 41, 4-{5-[(S)-(2-Fluorophenyl)(oxan-4-yl)methyl]-3-[4-(^2H3)methyl-1-methyl-1H-1,2,3-triazol-5-yl]-5H-pyrido[3,2-b]indol-8-yl}-1λ^6-thiomorpholine-1,1-dione] | < 1500 |
| Cc1nnn(C)c1-c1cnc2c3c(N4CCN(CC(N)=O)CC4)ccc(S(C)(=O)=O)c3n([C@H](c3ccccc3)C3CCOCC3)c2c1 [Example 22, 2-{4-[3-(Dimethyl-1H-1,2,3-triazol-5-yl)-6-methanesulfonyl-5-[(S)-oxan-4-yl(phenyl)methyl]-5H-pyrido[3,2-b]indol-9-yl]piperazin-1-yl}acetamide] | < 5 |
| Cc1nnn(C)c1-c1cnc2c3ccc(N4CCS(=O)(=O)CC4)cc3n([C@H](c3ccccc3)C3CCOCC3)c2c1 [Example 44, 4-[3-(Dimethyl-1H-1,2,3-triazol-5-yl)-5-[(S)-oxan-4-yl(phenyl)methyl]-5H-pyrido[3,2-b]-indol-7-yl]-1λ^6-thiomorpholine-1,1-dione] | < 1 |
| [2H]C([2H])([2H])c1nnn(C)c1-c1cnc2c3ccc(N4CCC(F)(F)CC4)cc3n(C(c3ncccc3F)C3CCOCC3)c2c1 (centres unmarked) [Example 65, 2-{[7-(4,4-Difluoropiperidin-1-yl)-3-[4-(^2H3)methyl-1-methyl-1H-1,2,3-triazol-5-yl]-5H-pyrido[3,2-b]indol-5-yl](oxan-4-yl)methyl}-3-fluoropyridine] | < 1 |
| Cc1nnn(C)c1-c1cnc2c3ccc(N4CCC(C(F)(F)F)CC4)cc3n(C(c3ccccc3)C3CCC(F)(F)CC3)c2c1 (single isomer, unassigned) [Example 78, 1-{5-[(4,4-Difluorocyclohexyl)(phenyl)methyl]-3-(dimethyl-1H-1,2,3-triazol-5-yl)-5H-pyrido[3,2-b]indol-7-yl}-4-(trifluoromethyl)piperidine] | < 5 |
| Cc1n[nH]c(C)c1-c1ccc2c3ncc(-c4c(C)nnn4C)cc3n([C@H](c3ccccc3)C3CCOCC3)c2c1 [Example 17, 5-[7-(3,5-Dimethyl-1H-pyrazol-4-yl)-5-[(S)-oxan-4-yl(phenyl)methyl]-5H-pyrido[3,2-b]indol-3-yl]-1,4-dimethyl-1H-1,2,3-triazole] | < 1 |
| [2H]C([2H])([2H])c1nnn(C)c1-c1cnc2c3ccc(C4(O)CCNCC4)c(F)c3n([C@H](c3ccccc3)C3CCOCC3)c2c1 [Example 53, 4-{6-Fluoro-3-[4-(^2H3)methyl-1-methyl-1H-1,2,3-triazol-5-yl]-5-[(S)-oxan-4-yl(phenyl)methyl]-5H-pyrido[3,2-b]indol-7-yl}piperidin-4-ol] | < 1 |
| [2H]C([2H])([2H])c1nnn(C)c1-c1cnc2c3c(N4CCCS4(=O)=O)ccc(S(C)(=O)=O)c3n([C@H](c3ccc(F)cc3)C3CCOCC3)c2c1 [Example 33, 2-{5-[(S)-(4-Fluorophenyl)(oxan-4-yl)methyl]-6-methanesulfonyl-3-[4-(^2H3)methyl-1-methyl-1H-1,2,3-triazol-5-yl]-5H-pyrido[3,2-b]indol-9-yl}-1λ^6,2-thiazolidine-1,1-dione] | < 1 |
| Cc1nnn(C)c1-c1cnc2c3ccc(N4CCCOC4=O)cc3n([C@H](c3ccccc3)C3CCOCC3)c2c1 [Example 12, 3-[3-(Dimethyl-1H-1,2,3-triazol-5-yl)-5-[(S)-oxan-4-yl(phenyl)methyl]-5H-pyrido[3,2-b]indol-7-yl]-1,3-oxazinan-2-one] | < 5 |
| CC(=O)OCC(=O)N1CCC(c2ccc3c(c2)c2ncc(-c4c(C)nnn4C)cc2n3[C@H](c2ccccc2)C2CCOCC2)CC1 [Example 8, 2-{4-[3-(Dimethyl-1H-1,2,3-triazol-5-yl)-5-[(S)-oxan-4-yl(phenyl)methyl]-5H-pyrido[3,2-b]indol-8-yl]piperidin-1-yl}-2-oxoethyl acetate] | < 5 |
| [2H]C([2H])([2H])c1nnn(C)c1-c1cnc2c3c(N4CCCS4(=O)=O)ccc(S(C)(=O)=O)c3n([C@H](c3ccccc3)C3CCOCC3)c2c1 [Example 26, 2-{6-Methanesulfonyl-3-[4-(^2H3)methyl-1-methyl-1H-1,2,3-triazol-5-yl]-5-[(S)-oxan-4-yl(phenyl)methyl]-5H-pyrido[3,2-b]indol-9-yl}-1λ^6,2-thiazolidine-1,1-dione] | < 1500 |
| [2H]C([2H])([2H])c1nnn(C)c1-c1cnc2c3c(N4CCC(F)(F)CC4)ccc(S(C)(=O)=O)c3n(C(c3ccccc3)C3CCC(F)(F)CC3)c2c1 (centres unmarked) [Example 73, 1-{5-[(4,4-Difluorocyclohexyl)(phenyl)methyl]-6-methanesulfonyl-3-[4-(^2H3)methyl-1-methyl-1H-1,2,3-triazol-5-yl]-5H-pyrido[3,2-b]indol-9-yl}-4,4-difluoropiperidine] | < 1500 |
| Cc1nnn(C)c1-c1cnc2c3ccc(N4CCN(C(=O)N(C)C)CC4)cc3n([C@H](c3ccccc3)C3CCOCC3)c2c1 [Example 49, 4-[3-(Dimethyl-1H-1,2,3-triazol-5-yl)-5-[(S)-oxan-4-yl(phenyl)methyl]-5H-pyrido[3,2-b]indol-7-yl]-N,N-dimethylpiperazine-1-carboxamide] | < 5 |
| [2H]C([2H])([2H])Oc1nnn(C)c1-c1ccc2c3ncc(-c4c(OC([2H])([2H])[2H])nnn4C)cc3n([C@H](c3ccccc3)C3CCOCC3)c2c1 [Example 29, 4-(^2H3)Methoxy-5-{7-[4-(^2H)methoxy-1-methyl-1H-1,2,3-triazol-5-yl]-5-[(S)-oxan-4-yl-(phenyl)methyl]-5H-pyrido[3,2-b]indol-3-yl}-1-methyl-1H-1,2,3-triazole] | < 5 |
| CC(=O)N1CCC(c2ccc3c(c2)c2ncc(-c4c(C)noc4C)cc2n3[C@H](c2ccccc2)C2CCOCC2)CC1 [Example 7, 1-{4-[3-(Dimethyl-1,2-oxazol-4-yl)-5-[(S)-oxan-4-yl(phenyl)methyl]-5H-pyrido[3,2-b]indol-8-yl]piperidin-1-yl}ethan-1-one] | < 1 |
| Cc1nnn(C)c1-c1cnc2c3ccc(N4CCC(F)(F)CC4)cc3n(C(c3ccccc3)C3CCC(F)(F)CC3)c2c1 (single isomer, unassigned) [Example 76, 1-{5-[(4,4-Difluorocyclohexyl)(phenyl)methyl]-3-(dimethyl-1H-1,2,3-triazol-5-yl)-5H-pyrido[3,2-b]indol-7-yl}-4,4-difluoropiperidine] | < 5 |
| Cc1nnn(C)c1-c1cnc2c3c(N4CCNCC4)ccc(S(C)(=O)=O)c3n([C@H](c3ccccc3)C3CCOCC3)c2c1 [Example 21, 1-[3-(Dimethyl-1H-1,2,3-triazol-5-yl)-6-methanesulfonyl-5-[(S)-oxan-4-yl(phenyl)methyl]-5H-pyrido[3,2-b]indol-9-yl]piperazine] | < 5 |
| [2H]C([2H])([2H])c1nnn(C)c1-c1cnc2c3ccc(N4CCC(F)(F)CC4)cc3n(C(c3ncccc3F)C3CCOCC3)c2c1 (centres unmarked) [Example 66, 2-{[7-(4,4-Difluoropiperidin-1-yl)-3-[4-(^2H3)methyl-1-methyl-1H-1,2,3-triazol-5-yl]-5H-pyrido[3,2-b]indol-5-yl](oxan-4-yl)methyl}-3-fluoropyridine] | < 5 |
| [2H]C([2H])([2H])c1nnn(C)c1-c1cnc2c3c(N4CCCS4(=O)=O)ccc(S(C)(=O)=O)c3n([C@]([2H])(c3ccccc3)C3CCOCC3)c2c1 [Example 38, 2-{6-Methanesulfonyl-3-[4-(^2H3)methyl-1-methyl-1H-1,2,3-triazol-5-yl]-5-[(S)-oxan-4-yl(phenyl)(^2H)methyl]-5H-pyrido[3,2-b]indol-9-yl}-1λ^6,2-thiazolidine-1,1-dione] | < 5 |
